# pIC50: −log10 of the molar value.
# Biological target: T1, Bovine liver catalase (BLC) (Bos taurus, UniProt P00432)
# T1 construct: gene CAT; native homotetramer from bovine liver (Sigma-Aldrich)
# T1 sequence (P00432 2-527): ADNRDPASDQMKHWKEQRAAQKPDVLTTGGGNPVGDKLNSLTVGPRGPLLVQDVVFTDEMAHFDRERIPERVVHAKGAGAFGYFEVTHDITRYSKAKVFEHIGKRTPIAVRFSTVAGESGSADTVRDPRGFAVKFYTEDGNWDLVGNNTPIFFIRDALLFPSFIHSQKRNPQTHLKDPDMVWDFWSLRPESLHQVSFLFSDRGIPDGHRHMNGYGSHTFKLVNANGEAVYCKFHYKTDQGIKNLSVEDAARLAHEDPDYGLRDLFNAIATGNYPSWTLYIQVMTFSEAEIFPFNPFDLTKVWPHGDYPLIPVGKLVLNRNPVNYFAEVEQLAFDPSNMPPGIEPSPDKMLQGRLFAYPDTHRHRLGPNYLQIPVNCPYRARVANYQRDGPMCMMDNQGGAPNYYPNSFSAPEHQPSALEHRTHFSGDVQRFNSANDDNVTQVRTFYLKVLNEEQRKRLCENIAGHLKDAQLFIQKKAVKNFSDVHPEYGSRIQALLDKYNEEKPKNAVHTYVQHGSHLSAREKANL
# Test: H2O2 decomposition at A240 with purified BLC; supported by fluorescence quenching (K =[…] ^-1 at […] °C, n = […])
# Type: biochemical
structure (smiles),measurement,value
"Oc1ccc(/C=C/c2cc(O)cc(O)c2)cc1 [tRES, trans resveratrol]",pIC50,5.09

# From PMC5651055, “Effects of Resveratrol on the Structure and Catalytic Function of Bovine Liver catalase (BLC): Spectroscopic and Theoretical Studies” (Advanced Pharmaceutical Bulletin, 2017)
